These are literature values, as cited in patent publication US20240165002A1, “Compositions Incorporating Avobenzone Complexes” (University of Cincinnati, priority 2022, published 2024).

For series [1] the following is noted: at 360 nm.

Consider `COc1ccc(C(=O)CC(=O)c2ccc(C(C)(C)C)cc2)cc1` [Avobenzone, 1-(4-methoxyphenyl)-3-(4-tertbutylphenyl)-propane-1,3-dione], for which, in series [1], the molar absorption coefficient is 33,756 L/(mol·cm). Where the note is “once exposed to sun”, the “duration of photoprotection once exposed to sun” value is 30 min. The photostability result (upon exposure to light, keto-enol tautomerization) is given as “poor photostability”.
